ChEMBL document CHEMBL1201862, “PubChem BioAssay data set” (2004)
Calls of active or inactive are those of the source.

Columns and labels:
[1] = target: T1, Aryl hydrocarbon receptor (Homo sapiens, UniProt P35869); experiment: Luminescence-based cell-based high throughput dose response assay for activators of the Aryl Hydrocarbon Receptor (AHR). [Related pubchem assays: 2796 (Primary screen (AHR activators in singlicate)), 2845 (Confirmation screen (AHR activators in triplicate)), 434939 (Counterscreen (PXR activators in triplicate)), 2804 (Summary (AHR activators))]; assay type: ADME
T1 sequence (P35869 whole entry): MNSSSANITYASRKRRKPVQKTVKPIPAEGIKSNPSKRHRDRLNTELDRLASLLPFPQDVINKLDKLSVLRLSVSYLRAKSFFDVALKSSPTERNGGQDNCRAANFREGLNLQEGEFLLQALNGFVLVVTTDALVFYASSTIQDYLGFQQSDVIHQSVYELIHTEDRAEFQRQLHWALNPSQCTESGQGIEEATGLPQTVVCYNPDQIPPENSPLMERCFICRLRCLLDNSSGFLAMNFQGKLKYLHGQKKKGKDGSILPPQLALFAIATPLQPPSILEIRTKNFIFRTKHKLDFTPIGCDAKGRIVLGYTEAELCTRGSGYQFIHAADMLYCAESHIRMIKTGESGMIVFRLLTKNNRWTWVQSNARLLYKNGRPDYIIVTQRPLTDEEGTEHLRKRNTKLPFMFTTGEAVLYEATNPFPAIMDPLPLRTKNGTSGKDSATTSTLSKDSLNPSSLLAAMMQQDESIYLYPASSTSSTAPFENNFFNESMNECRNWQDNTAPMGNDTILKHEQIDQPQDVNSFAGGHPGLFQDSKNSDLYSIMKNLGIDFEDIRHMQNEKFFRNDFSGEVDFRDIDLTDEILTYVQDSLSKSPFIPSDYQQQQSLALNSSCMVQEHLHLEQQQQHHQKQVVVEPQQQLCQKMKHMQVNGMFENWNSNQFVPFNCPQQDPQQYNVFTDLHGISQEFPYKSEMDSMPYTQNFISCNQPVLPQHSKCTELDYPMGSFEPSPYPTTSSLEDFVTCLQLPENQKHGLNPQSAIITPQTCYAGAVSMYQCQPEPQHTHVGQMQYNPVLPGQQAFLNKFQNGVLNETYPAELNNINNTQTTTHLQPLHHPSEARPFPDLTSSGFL

[2] = THP-1 cell cytotoxicity, dose response, cytotoxicity control for Vif-APOBEC3G degradation inhibitor project, THP-1 cells (AID 1117359); assay type: functional; details: Human immunodeficiency virus 1, THP-1
Protein Tat = Protein Tat (Human immunodeficiency virus type 1 group M subtype B (isolate HXB2)(HIV-1), UniProt P04608); assay type: functional;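 note: tat binding to TAR RNA read out by fluorescence polarization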
Sequence of Protein Tat (P04608 whole entry): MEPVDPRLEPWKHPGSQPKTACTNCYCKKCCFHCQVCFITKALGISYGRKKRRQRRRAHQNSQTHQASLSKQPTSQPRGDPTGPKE

[3] = P. falciparum late gametocyte killing, dose response, luminescence (AID 1117278); assay type: functional, cell-based;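 note: gametocytes exposed to compound for 24 hours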
[4] = Jurkat T cell cytotoxicity, dose response, cytotoxicity control for P. falciparum gametocyte viability project, luminescence (AID 1117277); assay type: functional, cell-based;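 note: potency reflects loss of cellular ATP meaning fewer viable cells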
[5] = P. falciparum Dd2 growth inhibitors, dose response, SYBR Green, dry powder samples, set 9 (AID 1159568); assay type: functional, cell-based
[6] = cytotoxicity toward DRD oncogenic fibroblasts, dose response, cell-based, non-viral oncogenic, luminescence (AID 1934); assay type: functional; details: Homo sapiens
BJ [7] = experiment: cells; assay type: functional, cell-based; details: Homo sapiens
[8] = LGR2 antagonists, dose response, cell-based, HEK293, CRE-luciferase reporter, cherry pick, set 2 (AID 743343); assay type: functional;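 note: transfected cells were stimulated with diluted bursicon conditioned medium after compound addition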
HT-1080 = experiment: cytotoxicity in HT1080 fibrosarcoma cells, cell-based, fluorescence readout (AID 620); assay type: functional; details: Homo sapiens
HEK293 = experiment: inhibitors of LMP1-driven NF-kB reporter, dose response, cell-based, HEK293, luciferase, cherry-pick (AID 588343); assay type: functional; details: Homo sapiens
[9] = A549 cell cytotoxicity, dose response, cytotoxicity control, plate reader, cherry-pick, antagonist series (AID 743412); assay type: functional, cell-based
[10] = HEK293 cell cytotoxicity, dose response, cytotoxicity control, plate reader, cherry-picked samples (AID 743446); assay type: functional, cell-based
BJ [11] = experiment: cytotoxicity toward BJ-TERT-LT-ST fibroblasts, dose response, cell-based, RAS-independent, luminescence (AID 1935); assay type: functional; details: Homo sapiens;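 note: BJ fibroblasts immortalized with TERT plus LT and ST oncogenes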
[12] = HepG2 cell cytotoxicity, dose response, cytotoxicity control, plate reader, cherry-pick, antagonist series (AID 743416); assay type: functional, cell-based
[13] = target: T2, Oxysterols receptor LXR-beta (Homo sapiens, UniProt P55055); assay type: functional, cell-based;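 note: Cell-based luminescence dose-response assay of agonist activity at LXR, run as a confirmatory counterscreen to a daf-12 agonist screen; HEK293 cells with Gal4-LXR fusion and GAL4-driven luciferase reporter; agonist potency from rising luciferase signal of a Gal4-LXR reporter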
T2 sequence (P55055 whole entry): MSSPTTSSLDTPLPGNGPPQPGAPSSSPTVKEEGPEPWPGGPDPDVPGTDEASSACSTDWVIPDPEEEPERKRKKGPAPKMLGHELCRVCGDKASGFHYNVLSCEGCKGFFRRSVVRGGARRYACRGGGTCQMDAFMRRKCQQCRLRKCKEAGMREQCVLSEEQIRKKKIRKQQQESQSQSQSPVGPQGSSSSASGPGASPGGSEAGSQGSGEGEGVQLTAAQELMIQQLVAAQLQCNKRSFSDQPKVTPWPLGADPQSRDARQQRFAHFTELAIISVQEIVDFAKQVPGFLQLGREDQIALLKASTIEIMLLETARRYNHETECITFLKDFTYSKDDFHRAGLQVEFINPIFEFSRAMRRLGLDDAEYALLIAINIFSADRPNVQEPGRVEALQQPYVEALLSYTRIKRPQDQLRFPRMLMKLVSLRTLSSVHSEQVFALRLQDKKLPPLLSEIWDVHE

BJ [14] = experiment: cytotoxicity toward BJ-TERT fibroblasts, dose response, cell-based, RAS-independent, luminescence (AID 1933); assay type: functional; details: Homo sapiens
[15] = MC4R antagonists, dose response, counter-screen for LGR2 antagonist project, cell-based, plate reader, cherry pick (AID 743444); assay type: functional;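 note: transfected HEK 293 cells stimulated with alpha-MSH peptide; potency of inhibitors of the alpha-MSH evoked signal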

**Q.** Which EC50 [1] does the source give for `Cc1ccccc1-c1nc(-c2cccnc2)no1` here?
**A.** 1.74 µM (active)

**Q.** For `COc1ccc(S(=O)(=O)c2c(N)n(Cc3ccco3)c3nc4ccccc4nc23)cc1`, which CC50 [2] is on record?
**A.** > 40 µM (active)

**Q.** And the IC50 (Protein Tat)?
**A.** 3.46 µM (inconclusive)

**Q.** Which IC50 [3] does the source give for `Cc1ccc(-c2csc3ncnc(S)c23)cc1` here?
**A.** > 109 µM (inactive)

**Q.** What about the IC50 [4] of the same compound?
**A.** 76.2 µM (inactive)

**Q.** What does the source list for `CCC(C(=O)NCc1cccnc1)c1ccccc1` (configuration not stated)?
**A.** IC50 [3]: > 109 µM (inactive); IC50 [4]: > 83.2 µM (inactive)

**Q.** With `C[C@@H]1CCCCO[C@@H](CN(C)S(=O)(=O)c2ccc(F)cc2)[C@@H](C)CN([C@H](C)CO)C(=O)c2cc(N(C)C)ccc2O1` as the compound, how does the AC50 [5] read?
**A.** 7.15 µM (active)

**Q.** Which AC50 [5] does the source give for `O=C(Nc1ccccc1F)N1CCCCN2[C@H](CO)[C@H](c3ccc(/C=C/c4ccccc4)cc3)[C@H]2C1` here?
**A.** 1.6 µM (active)

**Q.** What does the source list for `COc1ccccc1-c1nc(-c2ccccn2)no1`?
**A.** EC50 [6]: 7.2 µM (active); EC50 (BJ [7]): 10.4 µM (active); AC50 [8]: 3.35 µM (active); EC50 (HT-1080): > 50 µM (not active); AC50 (HEK293): 1.26 µM (active); EC50 (cells): > 67.5 µM (inactive); AC50 [9]: 10.4 µM (active); AC50 [10]: 10.7 µM (active); EC50 (BJ [11]): > 150 µM (inconclusive); AC50 [12]: 19.4 µM (active); EC50 [13]: > 67.5 µM (inactive); EC50 (BJ [14]): 9.58 µM (active); AC50 [15]: 2.05 µM (active)
